This note sets out measurements from PMC4299541 (Cardiovascular Diabetology, 2015).

Experiment [1] has as its system GLAP-aptamer (DNA, aptamer, phosphorothioate linkage at each three bases (exact positions drawn in Figure 1C)) GCGGGTTGGGAGCCACTAGTAGCAACGTGCGACCCTCTACGAAGCAAACCATCCTCA
Description: quartz crystal microbalance (27 MHz), curve fitting. The conditions noted are these: immobilised compound; not affected by 2% fetal bovine serum.

Experiment [2] relates to Control-aptamer (DNA, single strand, phosphorothioate linkages (positions as in ref 24)) TTCGGCCTGGGGGCGGCCAGTTCGGGTCCAGTCGCGGGAG
Description: quartz crystal microbalance (27 MHz). The conditions noted are these: immobilised compound; highest concentration not stated.

For experiment [3], the system named is AGE-aptamer (DNA, aptamer, phosphorothioate linkages (positions drawn in Figure 3A)) TGTAGCCCGAGTATCATTCTCCATCGCCCCCAGATACAAG
Description: quartz crystal microbalance (27 MHz), curve fitting. The conditions noted are these: aptamer immobilised, GLAP added; not affected by 2% fetal bovine serum.

Experiment [4] deals with T1, RAGE (receptor for AGEs), vRAGE (Homo sapiens, UniProt Q15109).
T1 construct: gene AGER
Briefly: 27-MHz quartz crystal microbalance, vRAGE immobilized. In kind it is binding.

T1 sequence (Q15109 23-116 limits assumed): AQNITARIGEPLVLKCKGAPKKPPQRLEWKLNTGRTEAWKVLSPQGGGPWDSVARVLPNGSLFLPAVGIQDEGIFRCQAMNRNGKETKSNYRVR

By KD is commonly meant the equilibrium constant for the complex coming apart. Consider `CC(=O)NC(CCCC[n+]1cc(O)cc(CO)c1)C(=O)O` (racemic), for which the figures for the KD in experiment [1] and in experiment [3] were 2.6 µM and 33 µM, respectively. Moreover, in experiment [2], the binding entry is reported as “no”.
In general, Kd refers to the constant that tells how readily two partners part at equilibrium. Higher therefore signals a looser complex. Consider GLAP, for which the Kd in experiment [4] amounted to 59 µM. This counts as double-digit micromolar.
